According to patent US20260345584A1, “METHODS AND PHARMACEUTICAL COMPOSITIONS FOR TREATING CHEMOTHERAPY-INDUCED PERIPHERAL NEUROPATHY WITH EG5 INHIBITORS” (UNIVERSITY OF MIAMI, priority 2023, published 2026):

How the values were obtained:
[1] = tested on: HyPer oxidation in keratinocytes; experiment: Compartmentalized HyPer oxidation (nucleus, plasma membrane) in keratinocytes; format: in vivo, zebrafish; conditions: paclitaxel, alone or with EMD534085; for nuclear HyPer oxidation: nucleus
Procedure: HyPer fluorescence was measured in the oxidized (505 nm) and unoxidized (420 nm) channels by using the region of interest (ROI) function in ZEN Black (Zeiss) whereby ROIs were selected inside highly magnified mitochondria (HyPer-mito), cytoplasm (HyPer-cyto) or the plasma membrane (HyPer-CAAX). The data was exported, and ratios determined in Excel. H2O2 measurements in zebrafish transiently injected with tp63:Hyper were manually performed by placing spot objects in Imaris 9.5.1 onto individual cells such that the spots extended to the lateral edges. Fluorescence intensities were measured inside the spots and 505 nm/420 nm ratios were subsequently calculated.
These findings supported a role for Eg5 in nuclear X-ROS production as a result of microtubule fasciculation and increased mechanical tension.

[2] = tested on: epidermal keratinocytes (detyrosinated microtubules); experiment: Hind paw pad skin GluTub/DAPI histology in mice; format: in vivo, mouse; conditions: 24 mg/kg paclitaxel i.p.
Procedure: Paws and back skin were collected at predetermined time points, placed in 10% formalin, and stored overnight at 4 °C. Samples were embedded in paraffin and sectioned at 7 μm, deparaffinized, washed with PBS, and incubated at room temperature for 5 min in 0.1% Triton X-100 in PBS and then blocked for 30 min (5% BSA). Sections were incubated with primary antibody diluted in blocking solution, overnight at 4 °C in a humidity chamber. Following PBS washes, sections were incubated for 1 h at room temperature with a secondary antibody. Tissues were mounted and assessed for staining. Antibodies used were against detyrosinated tubulin Millipore AB3201, p-KIF11 Invitrogen PA5-38647, alpha-tubulin Proteintech 66031-1-Ig, mouse Alexa Fluor 488 Invitrogen A21202, and rabbit Alexa flour 546 Invitrogen A10040. DAPI was used for nuclei counterstaining.
Immunofluorescence staining was performed with a widefield microscopy using a Plan-Apochromatix 100× objective lens (oil immersion, numerical aperture [NA]1.4), 20× and 10× objective lens on inverted Zeiss Axio Observer Z1 using AxioVision 4.8 software. Images were acquired using a monochrome Zeiss Axio Cam MRm CCD camera. Images were processed with the NIH Image J software.
These mice were then sacrificed and the skin of the hind paw pad was fixed in 4% paraformaldehyde, followed by sectioning and staining with 1) anti-GluTub (to detect detyrosinated microtubules) and 2) DAPI to detect nuclei.

[3] = tested on: microtubules in keratinocytes; experiment: EB3-GFP microtubule growth dynamics in keratinocytes; format: in vivo, zebrafish
Procedure: (§1) Fish were anesthetized in 2-phenoxyethanol (1:1000) in Ringer's solution prior to imaging and mounted in 1.2% agarose. EB3-GFP and Tau-Bfp2 were imaged with a scan speed kept at the maximum level in single slice mode with […] for a total of 60s to capture microtubule dynamics. h2a:H2A-GFP time-lapse recordings were produced (Zeiss LSM880 AiryScan confocal microscope) with 1 μm sections recorded every 10 min for 12 hr using 800×800 pixels. All other live fish were imaged using 1024×1024 pixels.
EB3-GFP tracking was done in Fiji using the MTrackJ plugin to trace microtubules over time and create Kymographs, measure the velocity, track length, and comet duration. Tracking was also performed using the Spots and Surface tools in Imaris. Settings were initially automatically detected to fit the fluorescence and subsequently modified manually for improved fit. Settings were maintained between treatment groups.
To validate this, microtubule growth dynamics were characterized in basal keratinocytes expressing the microtubule plus-end binding protein, EB3-GFP (courtesy of R. Koester) (Distel et al., 2010, The Journal of cell biology 191: 875-890). […] However, a small proportion of keratinocytes also harbored uniformly labelled EB3-positive microtubules, consistent with previous observations in murine axons (Kleele et al., 2015, Proceedings of the National Academy of Sciences of the United States of America 112: 7501-7506). […] This behavior therefore contrasts the curved conformation of stable dfMTs.

[4] = tested on: caudal fin keratinocytes (mitosis); experiment: Keratinocyte mitosis, 12 hr time-lapse imaging of h2a:h2a-GFP fish; format: in vivo, zebrafish
Procedure: as §1
Cell divisions and cell death were manually counted in 12 hr movie recordings. The caudal fin was divided into 6 quadrants and individual cells in each quadrant were manually followed over 12 hr at least 3 times sequentially to capture cell divisions and dying cell behaviors.
To examine the effects of EMD534085 on mitosis, cell divisions in keratinocytes expressing nuclear h2a-h2a:GFP were quantified using 12 hr time-lapse imaging. […] The few divisions present were mostly restricted to the distal notochord region, with an average of 0.96±0.20/12 hr divisions at 3dpf and 1.16±0.44/12 hr at 6dpf in this region (shown in FIG. 6A).

[5] = alone or with EMD534085 20 mg/kg x3

SMILES	nuclear HyPer oxidation [1]	plasma membrane HyPer oxidation [1]	number of epidermal keratinocytes with dMT [2, 5]	paclitaxel-dependent microtubule growth dynamics ([3]; EMD534085 with 22 μM paclitaxel)	mitotic divisions per animal ([4]; EMD534085 alone, 96 hr)	GluTub fluorescence [2]	brittle skin / empty regions in the stratum spinosum [2, 5]	keratinocytes with uniform EB3 labelling ([3]; 22 μM paclitaxel, 96 hr) [%]	comet duration ([3]; paclitaxel, 3 hr)	growth velocity and track length of microtubules ([3]; paclitaxel, 3 hr)	keratinocytes with uniform EB3 labelling ([3]; paclitaxel, 3 hr) [%]	keratinocytes with uniform EB3 labelling ([3]; paclitaxel, 48 hr) [%]	linearity of microtubules ([3]; paclitaxel, 48 hr and 96 hr)	mitotic divisions per animal ([4]; 100 nM paclitaxel, 96 hr)	mitotic divisions per animal ([4]; 22 μM paclitaxel, alone or with EMD534085, 96 hr)
CN(C)CCNC(=O)NC[C@H]1CC[C@@H]2[C@H](O1)c1cc(C(F)(F)F)ccc1N[C@H]2c1ccccc1 [EMD534085]	Nuclear HyPer oxidation was reduced upon co-administration of EMD534085	without effects on plasma membrane oxidation	The increase was dampened when paclitaxel was injected with EMD534085	did not alter the effects induced by paclitaxel alone	1.27±0.46 /12 hr										
CC(=O)O[C@H]1C(=O)[C@@]2(C)[C@H]([C@H](OC(=O)c3ccccc3)[C@]3(O)C[C@H](OC(=O)[C@H](O)[C@@H](NC(=O)c4ccccc4)c4ccccc4)C(C)=C1C3(C)C)[C@]1(OC(C)=O)CO[C@@H]1C[C@@H]2O [paclitaxel]	increased oxidation within the nucleus	not at the plasma membrane	an increase with paclitaxel treatment			increased GluTub fluorescence	brittle skin in the stratum spinosum	20.13	not affected	decreased the growth velocity and track length of microtubules	19.29	10.09	further enhanced the linearity	0.72±0.423	1.4±0.67
